Patent US11787792B2, “5-[[4-[[morpholin-2-yl]methylamino]-5-(trifluoromethyl)-2 Pyridyl]Amino]Pyrazine-2-carbonitrile and therapeutic uses thereof” (priority 2012, dated 2023)

What was measured:
Type in all cases: cell-based
HT29 cells [1] = assay: Cellular efficacy in combination with SN38 (SRB potentiation assay); conditions: SRB IC50/Potentiation IC50, HT29 cells, SN38 at its IC50, 96 hours
Method: Assay 4: Cellular Efficacy in HT29 or SW620 Colon Carcinoma Cells in Combination with SN38 or Gemcitabine
HT29 or SW620 cells were seeded at 1.6 to 3.2×10^3 cells per well in 96-well plates in a volume of 160 μL medium and allowed to attach for 36 hours prior to treatment.
The Potentiation Index (PI) was calculated as a measure of the ability of the CHK1 inhibitor to enhance SN38 or gemcitabine cytotoxicity and was defined as the ratio of the Cytotoxicity IC50 of the CHK1 inhibitor alone versus the Potentiation IC50 of the CHK1 inhibitor combined with the genotoxic (i.e., PI=CHK1 inhibitor SRB IC50/Potentiation IC50).

HT29 cells [2] = assay: Cellular potency in Mitosis Inhibition Assay (MIA), checkpoint abrogation after etoposide; conditions: for IC50: Homo sapiens, HT-29, HT29 cells, etoposide pre-treatment, nocodazole, read-out: CHK1 Cellular Potency MIA IC50; for (fold better) Compound 1, CHK1 cellular potency MIA: fold by which Compound 1 is more potent than the compound; for (fold better) Compound 2, CHK1 cellular potency MIA: fold by which Compound 2 is more potent than the compound
Method: Assay 2: Cellular Potency in Mitosis Inhibition Assay (MIA)
Checkpoint abrogation by CHK1 kinase function inhibitors in combination with genotoxic agents was assessed using a europium based ELISA assay designed to quantify the number of cells trapped in mitosis after treatment with a genotoxic agent (to induce G2 arrest) followed by a CHK1 inhibitor test compound in combination with nocodazole to abrogate this arrest. HT29 cells were seeded at 10^4 cells per well into 96-well plates in a volume of 160 μL and left to attach for 36 hours. […] After genotoxic drug exposure, the medium was removed and replaced with fresh medium (160 μL). […] CHK1 inhibitor test compounds were added in 40 μL aliquots using quadruplicate wells for each concentration. After 21 hours exposure, the medium was removed and cells were fixed in 4% formaldehyde in phosphate buffered saline (PBS, pH 7.4, pre-cooled to 4° C.) for 30 minutes at 4° C., followed by 100% methanol (pre-cooled to −20° C.) for 10 minutes at ambient temperature. Wells were washed with PBS and blocked with 5% dried milk (Marvel) in Tris-buffered saline (TBS, pH 7.4) at 37° C. for 30 minutes. Each well was washed three times with water containing 0.1% Tween 20. […] Primary antibody was removed and wells were washed with water containing 0.1% Tween 20.
Europium emissions were counted on a Wallac, Victor2 counter (Perkin-Elmer, Bucks UK).

HT29 cells [3] = assay: Selectivity in cells for CHK1-dependent checkpoint abrogation versus cytotoxicity (Activity Index = SRB IC50/MIA IC50); conditions: for (fold better) Compound 1, cellular selectivity: fold by which Compound 1 is more selective than the row's compound; for (fold better) Compound 2, cellular selectivity: fold by which Compound 2 is more selective than the row's compound
Method: Assay 3: Assessment of Selectivity in Cells for CHK1-Dependent Checkpoint Abrogation Versus Cytotoxicity
Compound cytotoxicity was assessed using a 96 hour sulforhodamine B assay (SRB, Sigma catalog number S9012). HT29 or SW620 cells were seeded at 1.6 to 3.2×10^3 cells per well in 96-well plates in a volume of 160 μL medium and allowed to attach for 36 hours prior to treatment. […] Cells were incubated for 96 hours (four doublings) at 37° C. in a humidified 5% CO2 environment and then fixed and stained with SRB.
The Activity Index (AI), a measure of the selectivity of the CHK1 inhibitor test compounds for effecting CHK1-dependent checkpoint abrogation versus cytotoxicity was calculated from the ratio of the CHK1 inhibitor cytotoxicity IC50 versus the MIA IC50 (i.e., AI=CHK1 inhibitor SRB IC50/MIA IC50), both measured in HT29 cells.

Structure (SMILES): COC(C)(C)C#Cc1cnc(Nc2cnc(C#N)cn2)cc1NC[C@@H]1CNCCO1 [Compound Y-155]
- Cell Efficacy + SN38 in HT29 cells (Potentiation Index) (HT29 cells [1]): 0.9 fold
- IC50 (HT29 cells [2]): 120 nM
- (fold better) Compound 1, CHK1 cellular potency MIA (HT29 cells [2]): ~4 fold
- (fold better) Compound 2, CHK1 cellular potency MIA (HT29 cells [2]): ~7 fold
- (fold better) Compound 1, cellular selectivity (HT29 cells [3]): ~2.4 fold
- (fold better) Compound 2, cellular selectivity (HT29 cells [3]): ~13 fold

Structure (SMILES): COCCOc1ccc(-c2cnc(Nc3cnc(C#N)cn3)cc2NC[C@H]2CNCCO2)cc1 [Compound Y-157]
- Cell Efficacy + SN38 in HT29 cells (Potentiation Index) (HT29 cells [1]): 2 fold
- IC50 (HT29 cells [2]): 600 nM
- (fold better) Compound 1, CHK1 cellular potency MIA (HT29 cells [2]): ~20 fold
- (fold better) Compound 2, CHK1 cellular potency MIA (HT29 cells [2]): ~33 fold
- (fold better) Compound 1, cellular selectivity (HT29 cells [3]): ~4.1 fold
- (fold better) Compound 2, cellular selectivity (HT29 cells [3]): ~24 fold

Structure (SMILES): COCC#Cc1cnc(Nc2cnc(C#N)cn2)cc1NC[C@@H]1CNCCO1 [Compound Y-154]
- IC50 (HT29 cells [2]): 90 nM

Structure (SMILES): N#Cc1cnc(Nc2cc(NC[C@@H]3CNCCO3)c(C(F)(F)F)cn2)cn1 [Compound 2, 5-[[4-[[(2S)-Morpholin-2-yl]methylamino]-5-(trifluoromethyl)-2-pyridyl]amino]pyrazine-2-carbonitrile]
- IC50 (HT29 cells [2]): 18 nM

Structure (SMILES): COCc1ccc(-c2cnc(Nc3cnc(C#N)cn3)cc2NC[C@@H]2CNCCO2)cc1 [Compound Y-148]
- IC50 (HT29 cells [2]): 900 nM
- (fold better) Compound 1, CHK1 cellular potency MIA (HT29 cells [2]): ~30 fold
- (fold better) Compound 2, CHK1 cellular potency MIA (HT29 cells [2]): ~50 fold
- (fold better) Compound 1, cellular selectivity (HT29 cells [3]): ~5.9 fold
- (fold better) Compound 2, cellular selectivity (HT29 cells [3]): ~34 fold

Structure (SMILES): N#Cc1cnc(Nc2cc(NCC3CNCCO3)c(C(=O)Nc3ccccc3)cn2)cn1 (stereo not shown) [Compound Y-102]
- IC50 (HT29 cells [2]): 800 nM
- (fold better) Compound 1, CHK1 cellular potency MIA (HT29 cells [2]): ~27 fold
- (fold better) Compound 2, CHK1 cellular potency MIA (HT29 cells [2]): ~44 fold
- (fold better) Compound 1, cellular selectivity (HT29 cells [3]): ~5.6 fold
- (fold better) Compound 2, cellular selectivity (HT29 cells [3]): ~33 fold

Structure (SMILES): COCCOc1ccc(-c2cnc(Nc3cnc(C#N)cn3)cc2NC[C@@H]2CNCCO2)cc1 [Compound Y-149]
- IC50 (HT29 cells [2]): 1100 nM
- (fold better) Compound 1, CHK1 cellular potency MIA (HT29 cells [2]): ~34 fold
- (fold better) Compound 2, CHK1 cellular potency MIA (HT29 cells [2]): ~61 fold
- (fold better) Compound 1, cellular selectivity (HT29 cells [3]): ~7.4 fold
- (fold better) Compound 2, cellular selectivity (HT29 cells [3]): ~43 fold

Structure (SMILES): COCc1ccc(-c2cnc(Nc3cnc(C#N)cn3)cc2NC[C@H]2CNCCO2)cc1 [Compound Y-156]
- Cell Efficacy + SN38 in HT29 cells (Potentiation Index) (HT29 cells [1]): 1.6 fold
- IC50 (HT29 cells [2]): 560 nM
- (fold better) Compound 1, CHK1 cellular potency MIA (HT29 cells [2]): ~19 fold
- (fold better) Compound 2, CHK1 cellular potency MIA (HT29 cells [2]): ~31 fold
- (fold better) Compound 1, cellular selectivity (HT29 cells [3]): ~4.8 fold
- (fold better) Compound 2, cellular selectivity (HT29 cells [3]): ~28 fold

Structure (SMILES): COCCCc1cnc(Nc2cnc(C#N)cn2)cc1NC[C@H]1CNCCO1 [Compound Y-159]
- IC50 (HT29 cells [2]): 700 nM

Structure (SMILES): N#Cc1cnc(Nc2cc(NC[C@H]3CNCCO3)c(C(F)(F)F)cn2)cn1 [Compound 1, 5-[[4-[[(2R)-Morpholin-2-yl]methylamino]-5-(trifluoromethyl)-2-pyridyl]amino]pyrazine-2-carbonitrile]
- IC50 (HT29 cells [2]): 30 nM
